Reference: the supplement of paper PMC10307832

Experiments:
Assay in all cases: relative viability (nuclei count vs DMSO), 5 days (fraction); higher = more cells survive
Zosuquidar + Linsitinib = compound: O[C@@H](COc1cccc2ncccc12)CN1CCN([C@@H]2c3ccccc3[C@@H]3[C@H](c4ccccc42)C3(F)F)CC1 [Zosuquidar] + C[C@]1(O)C[C@@H](c2nc(-c3ccc4ccc(-c5ccccc5)nc4c3)c3c(N)nccn32)C1 [Linsitinib] (partner 1 µM)
Procedure, shortened: (§1)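 A single step with final 0.05% Triton X-100, 1% formaldehyde and 1 ug/ml Hoechst fixed the cells and stained nuclei 5 days after treatment. Lung cancer cell lines in 1536-well plates had been treated by pin tool the day after seeding with one drug alone or a fixed anchor-drug dose plus five library-drug doses (not always all listed) in √10 steps, and nuclei were counted on 4× images. Relative viability is the ratio of nuclei in treated wells to nuclei in vehicle wells, taken as the median of duplicate plates.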

Zosuquidar + Decitabine = compound: O[C@@H](COc1cccc2ncccc12)CN1CCN([C@@H]2c3ccccc3[C@@H]3[C@H](c4ccccc42)C3(F)F)CC1 [Zosuquidar] + Nc1ncn([C@H]2C[C@H](O)[C@@H](CO)O2)c(=O)n1 [Decitabine] (partner 2 µM)
Procedure, shortened: as §1

Kobe2602 + Tozasertib = compound: C1=CC(=CC=C1NC(=S)NNC2=C(C=C(C=C2[N+](=O)[O-])C(F)(F)F)[N+](=O)[O-])F [Kobe2602] + Cc1cc(Nc2cc(N3CCN(C)CC3)nc(Sc3ccc(NC(=O)C4CC4)cc3)n2)n[nH]1 [Tozasertib] (partner 0.1 µM)
Procedure, shortened: as §1

Cabozantinib + OSI-027 = compound: COc1cc2nccc(Oc3ccc(NC(=O)C4(C(=O)Nc5ccc(F)cc5)CC4)cc3)c2cc1OC [Cabozantinib] + COc1cccc2cc(-c3nc([C@H]4CC[C@H](C(=O)O)CC4)n4ncnc(N)c34)[nH]c12 [OSI-027] (partner 0.5 µM)
Procedure, shortened: as §1

Cell Line	relative viability (Zosuquidar + Linsitinib; first compound 0.01 µM)	relative viability (Zosuquidar + Linsitinib; first compound 0.03162 µM)	relative viability (Zosuquidar + Linsitinib; first compound 0.1 µM)	relative viability (Zosuquidar + Linsitinib; first compound 0.3162 µM)	relative viability (Zosuquidar + Linsitinib; first compound 1 µM)	relative viability (Zosuquidar + Decitabine; first compound 0.01 µM)	relative viability (Zosuquidar + Decitabine; first compound 0.03162 µM)	relative viability (Zosuquidar + Decitabine; first compound 0.1 µM)	relative viability (Zosuquidar + Decitabine; first compound 0.3162 µM)	relative viability (Zosuquidar + Decitabine; first compound 1 µM)	relative viability (Kobe2602 + Tozasertib; first compound 0.2 µM)	relative viability (Kobe2602 + Tozasertib; first compound 0.6325 µM)	relative viability (Kobe2602 + Tozasertib; first compound 2 µM)	relative viability (Kobe2602 + Tozasertib; first compound 6.325 µM)	relative viability (Kobe2602 + Tozasertib; first compound 20 µM)	relative viability (Cabozantinib + OSI-027; first compound 0.02 µM)	relative viability (Cabozantinib + OSI-027; first compound 0.06325 µM)	relative viability (Cabozantinib + OSI-027; first compound 0.2 µM)	relative viability (Cabozantinib + OSI-027; first compound 0.6325 µM)	relative viability (Cabozantinib + OSI-027; first compound 2 µM)
NCI-H2023	0.656	0.815	0.605	0.631	0.776	0.195	0.281	0.235	0.246	0.268	0.253	0.326	0.244	0.175	0.157	0.308	0.39	0.322	0.327	0.235
NCI-H1793	0.748	0.934		0.797	0.73	0.536			0.648	0.488	0.279	0.305	0.292	0.417	0.278	0.196	0.254	0.198	0.253	0.197
NCI-H2347	0.968	1	0.834	1.01	1.06	0.689	0.648	0.657	0.694	0.643	0.708	0.647	0.512	0.495	0.55	0.303	0.42	0.45		0.294
LXF-289	0.888	1	0.94	0.981	1.03	0.357	0.364	0.367	0.418	0.403	0.192	0.191	0.181	0.203	0.185	0.612	0.856	0.753	0.816	0.78
EKVX	1.05	1.06	0.731	0.922	1.05	0.299	0.414		0.334	0.36	0.391	0.284	0.362	0.365	0.278	0.655	0.981	0.637	0.679	0.778
ABC-1	0.877	0.794	0.836	0.871	0.924	1.27	1.15	1.15	1.24	1.15	0.201	0.181		0.216	0.215	0.538	0.497	0.489	0.567	0.456
NCI-H650	0.886	0.629		0.965	0.921	0.292	0.369	0.387	0.398	0.376	0.738	0.757	0.746	0.789	0.623		0.567	0.552	0.544	0.535
NCI-H1734	0.894	0.97	0.816	0.963	0.949	0.522	0.537	0.525	0.456	0.565	0.282	0.252	0.24	0.28	0.246	0.433	0.611	0.59	0.586	0.573
LOU-NH91	0.937	0.927	0.736	1.03	0.913	0.805	0.814	0.703	0.834	0.761	0.703	0.703	0.658	0.685	0.739	0.65	0.744		0.652	0.704
SK-MES-1	1.01	1.08	0.991	0.979	1.1	0.343	0.36	0.347	0.422	0.402	0.822	0.878	0.791	0.737	0.55	0.542	0.718	0.649	0.665	0.512
NCI-H460	0.764	0.802	0.711	0.759	0.768	0.459	0.448	0.335	0.55	0.44	0.342	0.402	0.411	0.154	0.0739	0.761	0.927	0.664	0.624	0.584
SK-LU-1	1.1	1.3	1.39	1.22	0.874	0.652	0.66	0.684	0.679	0.638	0.31	0.371	0.333	0.372	0.357	0.3	0.37	0.394	0.298	0.312
EPLC-272H	1.24	1.22	1.1	1.12	1.09	0.393	0.429	0.4	0.392	0.376	0.224	0.305	0.291	0.302	0.409	0.257	0.326	0.215	0.345	0.29
A-427	1.09	1.14	0.971	1.15	1.11	0.582	0.561	0.584	0.653	0.557	0.233	0.242	0.198	0.229	0.218	0.375	0.537	0.468	0.486	0.472
